The text below walks through data of US12156893B2, “Oral composition comprising lactic acid bacteria for regulating immune responses and methods related thereto” (The Regents of the University of California, priority 2016, dated 2024).

Assay type in all cases: cell-based, human
Assay [1] has as its system MP2 tumors. Put plainly: Chemotherapy-induced cell death of MP2 tumors. The following applies: for Cell death of NK-differentiated MP2: MP2 differentiated with NK-supernatants.
In assay [2] the test system is OSCSCs. Put plainly: Chemotherapy-induced cell death of NK-differentiated OSCSCs. Conditions: OSCSCs differentiated with NK supernatants.
Assay [3] has as its system PL12 or Capan. Put plainly: NAC-induced cell death of well-differentiated pancreatic tumors. The following applies: NAC added to well-differentiated PL12 or Capan.
The test system of assay [4] is NK cells. Put plainly: Production of cytokines, growth factors and chemokines by NK cells treated with bacterial strains (Bio-Plex 27-plex). More on the design: unit not given here. On the procedure:
Different strains of probiotic bacteria were tested for their ability to induce IFN-g as well as a number of important cytokines, chemokines and growth factors (Table 1). To assess the levels of each strain used in the combination we used an activation index established in the lab for the NK cells which consisted of the use of a specific ratio of several important cytokines and chemokines that prevented auto-immunity while enhancing significant activation of NK cells under pathologic conditions. Therefore, the strains were selected to: 1) provide regulated activation of NK cells when no activation of NK cells is desired; 2) when activated by cytokines and/or cross-linking of the important receptors which occurs during functional activation of NK cells in cancer is to induce maximal activation of NK cells; and 3) provide diversity for gut microflora. These criteria allow us to use bacteria to regulate the gut mucosal immunity in such a way that we will only increase NK activation when needed during infections or malignancies. In other words when there is no need for function of NK cells bacteria will regulate NK function to not induce inflammation; however, during need which occurs under the pathological conditions NK cells are triggered to function at the maximal levels. Such coordinated regulation of NK cell function should be effective in halting unwanted inflammation while providing effective and maximal immunity during disease.
Written informed consents, approved by UCLA Institutional Review Board (IRB), were obtained from healthy blood donors, and all procedures were approved by the UCLA-IRB. Peripheral blood was separated using Ficoll-Hypaque centrifugation, after which the white, cloudy layer, containing peripheral blood mononuclear cells (PBMC), was harvested, washed and re-suspended in RPMI 1640 (Invitrogen by Life Technologies, CA) supplemented with 10% FBS and plated on plastic tissue culture dishes. After 1-2 hours of incubation, non-adherent, human peripheral blood lymphocytes (PBL) were collected. NK cells were negatively selected and isolated from PBLs using the EasySep® Human NK cell enrichment kit purchased from Stem Cell Technologies (Vancouver, BC, Canada). Isolated NK cells were stained with anti-CD16 antibody, to measure NK cell purity using flow cytometric analysis. The isolated NK cell population was greater than 90% purity. Purified NK cells were cultured in RPMI Medium 1640 supplemented with 10% FBS (Gemini Bio-Products, CA), 1% antibiotic antimycotic, 1% sodium pyruvate, and 1% MEM non-essential amino acids (Invitrogen, Life Technologies, CA).
Purified NK cells from healthy donors were left untreated or treated with IL-2 (1000 units/ml) or the combination of anti-CD16 mAb (3 μg/ml) and IL-2 (1000 units/ml) in the presence or absence of bacterial strains at 1:5 ratio (NK cell: bacteria) for 12-18 hours. Afterwards, the levels of cytokines, growth factors and chemokines were determined using Bio-Plex Pro Human Cytokine 27-plex Assay Kit.

Setting [5] is: Treatment NK (no activation), bacteria 1:5 NK cell:bacteria, 12-18 hours.
Where [6] appears, read: Treatment NK + IL-2 (1000 units/ml), bacteria 1:5, 12-18 hours.
[7] abbreviates: Treatment NK + IL-2 + anti-CD16 mAb (3 μg/ml), bacteria 1:5, 12-18 hours.

As for `[NH2][Pt]([NH2])([Cl])[Cl]` [CDDP, Cisplatin], the “Cell death of NK-differentiated MP2” value in assay [1] was “significant susceptibility”. Besides, the “Cell death of NK-differentiated OSCSCs” value in assay [2] is listed as “significant susceptibility”.
For `CC(=O)N[C@@H](CS)C(=O)O` [NAC, N-acetylcysteine], the Cell death result in assay [3] was “greater levels of cell death”; in assay [1] (NAC added to poorly-differentiated MP2), “lower/slight effect on cell death”. Moreover, the “Cell death of NK-differentiated OSCSCs” value in assay [2] was “significantly increased Paclitaxel-mediated cell death”.
Regarding `CC(=O)O[C@H]1C(=O)[C@@]2(C)[C@H]([C@H](OC(=O)c3ccccc3)[C@]3(O)C[C@H](OC(=O)[C@H](O)[C@@H](NC(=O)c4ccccc4)c4ccccc4)C(C)=C1C3(C)C)[C@]1(OC(C)=O)CO[C@@H]1C[C@@H]2O` [Paclitaxel], the “Cell death of NK-differentiated MP2” value in assay [1] is on record as “significant susceptibility”. The “Cell death of NK-differentiated OSCSCs” value in assay [2] is given as “higher cell death”.
On to “Streptococcus thermophilus [S. thermophilus]”, for which, in assay [4] (setting [5]), the Eotaxin is recorded as 40, the G-CSF came to 149, the GM-CSF came out at 131 and the IFN-γ was found to be 785. Besides, in assay [4] (setting [5]), the IL-1B came to 1381, the IL-1ra is listed as 229, the IL-6 stood at 10222 and the IL-8 is listed as 3326. Moreover, in assay [4] (setting [5]), the IL-10 worked out at 63, the IL-12p70 turned out to be 515, the IL-13 was 9 and the IL-17 was determined as 74. In assay [4] (setting [5]), the IP-10 is 64, the MCP-1 was found to be 502, the RANTES was 2580 and the TNF-α amounted to 18892. Also, in assay [4] (setting [6]), the Eotaxin stood at 21, the G-CSF was found to be 87, the GM-CSF was 124 and the IFN-γ stood at 1188. In addition, in assay [4] (setting [6]), the IL-1B amounted to 390, the IL-1ra is reported as 465, the IL-6 came to 1773 and the IL-8 worked out at 1341. Also, in assay [4] (setting [6]), the IL-10 worked out at 17, the IL-12p70 is 132, the IL-13 is on record as 9 and the IL-17 was determined as 65. For the same compound, in assay [4] (setting [6]), the IP-10 amounted to 45, the MCP-1 is 169, the RANTES is reported as 2197 and the TNF-α was found to be 2413. Also, in assay [4] (setting [7]), the Eotaxin is 29, the G-CSF came to 101, the GM-CSF stood at 177 and the IFN-γ is 2594. Also, in assay [4] (setting [7]), the IL-1B was found to be 642, the IL-1ra was 434, the IL-6 was found to be 2475 and the IL-8 is reported as 1841. In assay [4] (setting [7]), the IL-10 is listed as 23, the IL-12p70 came out at 163, the IL-13 amounted to 15 and the IL-17 turned out to be 57. For the same compound, in assay [4] (setting [7]), the IP-10 is 58, the MCP-1 came out at 332, the RANTES is 2097 and the TNF-α was determined as 4917.
